# Assay results: patent EP1888615B1, “17 -HSD1 AND STS INHIBITORS” (Abbott Products GmbH, priority 2005, dated 2006)
# Target: T1, recombinant human 17β-hydroxysteroid dehydrogenase type 1 (Homo sapiens, UniProt P14061)
# T1 construct: made in house; host or cells: Sf9 insect cells (baculovirus, Bac to Bac Expression System)
# T1 sequence (P14061 1-328): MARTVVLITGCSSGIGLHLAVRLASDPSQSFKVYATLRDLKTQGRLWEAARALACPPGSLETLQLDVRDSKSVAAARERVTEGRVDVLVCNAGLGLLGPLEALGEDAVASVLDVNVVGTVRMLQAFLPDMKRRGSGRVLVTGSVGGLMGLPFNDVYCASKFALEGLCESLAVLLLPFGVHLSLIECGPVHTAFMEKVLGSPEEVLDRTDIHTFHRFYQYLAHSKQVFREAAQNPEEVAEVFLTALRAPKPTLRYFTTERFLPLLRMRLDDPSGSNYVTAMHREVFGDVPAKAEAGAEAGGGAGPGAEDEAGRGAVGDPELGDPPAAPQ
# Assay: Inhibition of recombinant human 17β-hydroxysteroid dehydrogenase type 1 (conversion of 3H-estrone to estradiol, HPLC radiodetection)
# Format: biochemical
# Settings: inhibitor 100 nM; 30 nM 3H-estrone, 1 mM NADPH, 30 min at RT
# Procedure: 17β-HSD1 purification: Recombinant baculovirus was generated by the "Bac to Bac Expression System" (Invitrogen). Recombinant bacmid was transfected to Sf9 insect cells using "Cellfectin Reagent" (Invitrogen). 60h later cells were harvested; the microsomal fraction was isolated as described by Puranen et al. (1994). Aliquots were stored frozen until determination of enzymatic activity.
# Assay - Inhibition of recombinant human 17β-hydroxysteroid dehydrogenase type 1: Recombinant protein (0.1µg/ml) was incubated in 20 mM KH2PO4 pH 7.4 with 30 nM 3H-estrone and 1 mM NADPH for 30 min at RT, in the presence of potential inhibitors at concentrations of 1 µM or 0.1 µM. Inhibitor stock solutions were prepared in DMSO. Final concentration of DMSO was adjusted to 1 % in all samples. The enzyme reaction was stopped by addition of 10 % trichloroacetic acid (final concentration). Samples were centrifuged in a microtiter plate at 4000 rpm for 10 min. Supernatants were applied to reverse phase HPLC on a Waters Symmetry C18 column, equipped with a Waters Sentry Guard column. Isocratic HPLC runs were performed at RT at a flow rate of 1 ml/min of acetonitrile:water 48:52 as running solvent. Radioactivity was monitored in the eluate by a Packard Flow Scintillation Analyzer. Total radioactivity for estrone and estradiol were determined in each sample and percent conversion of estrone to estradiol was calculated according to the following formula: % conversion = 100 × ({(cpm estradiol in sample with inhibitor)/[(cpm estrone in sample with inhibitor)+(cpm estradiol in sample with inhibitor)]})/({(cpm estradiol in sample without inhibitor)/[(cpm estrone in sample without inhibitor)+(cpm estradiol in sample without inhibitor)]}). [formula] [formula]
# Table 19: Inhibition of 17β-HSD enzyme type I
row,SMILES,Inhibition of rec 17β-HSD1
1,COc1cc2c(cc1O)CCC1C2CCC2(C)C(=O)CC(CCCC(=O)N3CCCCC3)C12 (stereo not drawn) [Example 78],40.6%

# Same assay, conditions: inhibitor 1 µm; 30 nM 3H-estrone, 1 mM NADPH, 30 min at RT; read-out: Inhibition of rec 17β-HSD1
row,SMILES,inhibition
1,C[C@]12CC[C@@H]3c4ccc(OCc5ccccc5)cc4CC[C@H]3[C@@H]1[C@H](C/C=C/C(=O)N1CCOCC1)c1cnoc12 [161'],74%
2,"CCCc1cc2c(cc1O)CC[C@H]1[C@@H]3[C@H](CCCC(=O)NCc4ccccc4)CC(=O)[C@@]3(C)CC[C@H]21 [Example 2, N-Benzyl-4-(3-hydroxy-17-oxo-2-propyl-estra-1,3,5(10)-trien-15β-yl)-butyramide]",74.8%
3,"COCCc1cc2c(cc1O)CC[C@H]1[C@@H]3[C@H](CCCC(=O)NCc4ccccc4)CC(=O)[C@@]3(C)CC[C@H]21 [Example 3, N-Benzyl-4-(3-hydroxy-2-(2-methoxy-ethyl)-17-oxo-estra-1,3,5(10)-trien-15β-yl)-butyramide]",71.2%
4,"CCCc1cc2c(cc1O)CC[C@H]1[C@@H]3[C@H](CCCC(=O)N4CCOCC4)CC(=O)[C@@]3(C)CC[C@H]21 [Example 6, 3-Hydroxy-15β-(4-morpholin-4-yl-4-oxo-butyl)-2-propyl-estra-1,3,5(10)-trien-17-one]",79.3%
5,CCCc1cc2c(cc1O)CC[C@H]1[C@@H]3[C@H](CCCC(=O)NCc4ccc5c(c4)OCO5)CC(=O)[C@@]3(C)CC[C@H]21 [Example 30],73.6%
6,CCCc1cc2c(cc1O)CC[C@H]1[C@@H]3[C@H](CCCC(=O)NCc4cccnc4)CC(=O)[C@@]3(C)CC[C@H]21 [Example 32],79%
7,CCCc1cc2c(cc1O)CC[C@H]1[C@@H]3[C@H](CCCC(=O)NCCc4c[nH]c5c(C)cccc45)CC(=O)[C@@]3(C)CC[C@H]21 [Example 34],71.9%
8,CCCc1cc2c(cc1O)CC[C@H]1[C@@H]3[C@H](CCCC(=O)N4CCCCC4)CC(=O)[C@@]3(C)CC[C@H]21 [Example 36],78.1%
9,CCCc1cc2c(cc1O)CC[C@H]1[C@@H]3[C@H](CCCC(=O)N(C)Cc4ccccc4)CC(=O)[C@@]3(C)CC[C@H]21 [Example 37],74.7%
10,CCCc1cc2c(cc1O)CC[C@H]1[C@@H]3[C@H](CCCC(=O)N(C)CCc4ccc(OC)c(OC)c4)CC(=O)[C@@]3(C)CC[C@H]21 [Example 38],76.7%
11,CCCc1cc2c(cc1O)CC[C@H]1[C@@H]3[C@H](CCCC(=O)Nc4ccc5cn[nH]c5c4)CC(=O)[C@@]3(C)CC[C@H]21 [Example 40],75.8%
12,CCCc1cc2c(cc1O)CC[C@H]1[C@@H]3[C@H](CCCC(=O)NCCOC)CC(=O)[C@@]3(C)CC[C@H]21 [Example 41],70.4%
13,CCCc1cc2c(cc1O)CC[C@H]1[C@@H]3[C@H](CCCC(=O)NCc4ccc(F)cc4F)CC(=O)[C@@]3(C)CC[C@H]21 [Example 42],71.7%
14,CCOc1cc2c(cc1O)CC[C@H]1[C@@H]3[C@@H](CCCC(=O)NC4CCCCC4)CC(=O)[C@@]3(C)CC[C@H]21 [Example 44],75%
15,CCOc1cc2c(cc1O)CC[C@H]1[C@@H]3[C@@H](CCCC(=O)NCc4ccc5c(c4)OCO5)CC(=O)[C@@]3(C)CC[C@H]21 [Example 45],75.7%
16,CCOc1cc2c(cc1O)CC[C@H]1[C@@H]3[C@@H](CCCC(=O)NCCc4c[nH]c5c(C)cccc45)CC(=O)[C@@]3(C)CC[C@H]21 [Example 52],72.2%
17,CCOc1cc2c(cc1O)CC[C@H]1[C@@H]3[C@@H](CCCC(=O)N4CCCCC4)CC(=O)[C@@]3(C)CC[C@H]21 [Example 55],71.9%
18,CCOc1cc2c(cc1O)CC[C@H]1[C@@H]3[C@@H](CCCC(=O)Nc4ccc5cn[nH]c5c4)CC(=O)[C@@]3(C)CC[C@H]21 [Example 59],69.7%
19,COc1cc2c(cc1O)CC[C@H]1[C@@H]3[C@@H](CCCC(=O)NC4CCCCC4)CC(=O)[C@@]3(C)CC[C@H]21 [Example 67],73.2%
20,COc1cc2c(cc1O)CC[C@H]1[C@@H]3[C@@H](CCCC(=O)NCc4ccccc4)CC(=O)[C@@]3(C)CC[C@H]21 [Example 71],70.6%
21,COc1cc2c(cc1O)CCC1C2CCC2(C)C(=O)CC(CCCC(=O)N3CCCCC3)C12 (stereo not drawn) [Example 78],72%

row,SMILES,inhibition
1,COc1cc2c(cc1O)CC[C@H]1[C@@H]3[C@@H](CCCC(=O)Nc4ccc5cn[nH]c5c4)CC(=O)[C@@]3(C)CC[C@H]21 [Example 83],71.6%
2,"C[C@]12CC[C@@H]3c4ccc(O)cc4CC[C@H]3[C@@H]1[C@H](CCCC(=O)N1CCOCC1)CC2(F)F [Example 90, 4-(17,17-Difluoro-3-hydroxy-estra-1,3,5(10)-trien-15β-yl)-1-morpholin-4-yl-butan-1-one]",81.6%
3,"C[C@]12CC[C@@H]3c4ccc(O)cc4CC[C@H]3[C@@H]1[C@@H](CCCC(=O)N1CCOCC1)CC2(F)F [Example 91, 4-(17,17-Difluoro-3-hydroxy-estra-1,3,5(10)-trien-15a-yl)-1-morpholin-4-yl-butan-1-one]",85%
4,"Cc1cnc(NC(=O)CC[C@@H]2CC(F)(F)[C@@]3(C)CC[C@@H]4c5ccc(O)cc5CC[C@H]4[C@H]23)s1 [Example 93, 3-(17,17-Difluoro-3-hydroxy-estra-1,3,5(10)-trien-15β-yl)-N-(5-methyl-thiazol-2-yl)-propionamide]",86.7%
5,C[C@]12CC[C@@H]3c4ccc(O)cc4CC[C@H]3[C@@H]1[C@@H](CCCC(=O)NC1CCCCC1)CC2(F)F [Example 102],70.6%
6,C[C@]12CC[C@@H]3c4ccc(O)cc4CC[C@H]3[C@@H]1[C@@H](CCCC(=O)NCc1ccccc1)CC2(F)F [Example 106],68%
7,C[C@]12CC[C@@H]3c4ccc(O)cc4CC[C@H]3[C@@H]1[C@@H](CCCC(=O)NCc1ccc(O)c(O)c1)CC2(F)F [Example 109],70.7%
8,Cc1cccc2c(CCNC(=O)CCC[C@H]3CC(F)(F)[C@@]4(C)CC[C@@H]5c6ccc(O)cc6CC[C@H]5[C@H]34)c[nH]c12 [Example 111],68.3%
9,C[C@]12CC[C@@H]3c4ccc(O)cc4CC[C@H]3[C@@H]1[C@@H](CCCC(=O)N1CCCCC1)CC2(F)F [Example 113],76.9%
10,COc1ccc(CCN(C)C(=O)CCC[C@H]2CC(F)(F)[C@@]3(C)CC[C@@H]4c5ccc(O)cc5CC[C@H]4[C@H]23)cc1OC [Example 116],82.4%
11,C[C@]12CC[C@@H]3c4ccc(O)cc4CC[C@H]3[C@@H]1[C@H](CCC(=O)NC1CC1)CC2(F)F [Example 120],85%
12,C[C@]12CC[C@@H]3c4ccc(O)cc4CC[C@H]3[C@@H]1[C@H](CCC(=O)NC1CCCCC1)CC2(F)F [Example 121],92.5%
13,C[C@]12CC[C@@H]3c4ccc(O)cc4CC[C@H]3[C@@H]1[C@H](CCC(=O)NCc1ccc3c(c1)OCO3)CC2(F)F [Example 122],77.9%
14,C[C@]12CC[C@@H]3c4ccc(O)cc4CC[C@H]3[C@@H]1[C@H](CCC(=O)NCc1ccccc1)CC2(F)F [Example 125],76.9%
15,C[C@]12CC[C@@H]3c4ccc(O)cc4CC[C@H]3[C@@H]1[C@H](CCC(=O)NCc1ccc(O)c(O)c1)CC2(F)F [Example 127],81.3%
16,COc1cc(CNC(=O)CC[C@@H]2CC(F)(F)[C@@]3(C)CC[C@@H]4c5ccc(O)cc5CC[C@H]4[C@H]23)cc(OC)c1 [Example 128],71.7%
17,Cc1cccc2c(CCNC(=O)CC[C@@H]3CC(F)(F)[C@@]4(C)CC[C@@H]5c6ccc(O)cc6CC[C@H]5[C@H]34)c[nH]c12 [Example 129],76.9%
18,C[C@]12CC[C@@H]3c4ccc(O)cc4CC[C@H]3[C@@H]1[C@H](CCC(=O)N1CCCCC1)CC2(F)F [Example 131],71.9%
19,CCN(CC)C(=O)CC[C@@H]1CC(F)(F)[C@@]2(C)CC[C@@H]3c4ccc(O)cc4CC[C@H]3[C@H]12 [Example 133],90.6%
20,COc1ccc(CCN(C)C(=O)CC[C@@H]2CC(F)(F)[C@@]3(C)CC[C@@H]4c5ccc(O)cc5CC[C@H]4[C@H]23)cc1OC [Example 134],88.6%
